The record followed here is patent publication US20180179198A1, “TRICYCLIC MODULATORS OF TNF SIGNALING” (AbbVie Inc., priority 2015, published 2018).

pIC50: −log10 of the molar value. Read-outs that look alike come from different tables or passages of the source.

In this assay the target is TNFα trimer (Homo sapiens, UniProt P01375). The assay can be described thus: TNFα FP Competitive Binding Assay. As to the method:
TNFα FP Competitive Binding Assay
• 1. Assay Buffer: Prepare 1× Assay Buffer (Water with 47 mM HEPES, 47 mM NaCl, 0.9 mM EDTA, 0.0071% Triton X-100) by adding 25 mL of 1 M HEPES, 5 mL of 5 M NaCl, 1 mL of 0.5 M EDTA, and 375 μL of a 10% Triton X-100 stock to a fresh 500 mL bottle of water. • 2. Assay Mixture: Prepare fresh Assay Mixture containing 20 nM TNFα trimer (60 nM protein) and 1 nM 2′,7′-difluoro-3′,6′-dihydroxy-N-(2-(2-(2-((4-(isoquinolin-8-yl)-3-(4-(isoquinolin-8-yl)phenethoxy)benzyl)oxy)ethoxy)ethoxy)ethyl)-3-oxo-3H-spiro[isobenzofuran-1,9′-xanthene]-5-carboxamide probe in 1× Assay Buffer.
Compound Plate Preparation
Manual 12-point 1:3 Dilution Plates: (384 well polypropylene plates)
Top concentration of compounds, 10 mM in DMSO, dispensed in rows A-O in columns 1 and 13. Compounds are serially diluted 1:3 with DMSO in columns 2-12 or 14-24 using a 16-channel Matrix pipettor. Plates stored at −20° C.
Discovery Preps 12-point 1:3 Dilution Plates: (384 well assay plates)
Top concentration, 5 mM in DMSO, of compounds placed in rows A-O in columns 1 and 13. Compounds are serially diluted 1:3 with DMSO in columns 2-12 or 14-24. Compound solutions are dispensed into replicate assay plates at 410 nL per well. Plates stored at 4° C.
TNFα FP Competitive Binding Assay Protocol
• 1. Compound plates are warmed to rt. • 2. Fresh Assay Mixture is prepared. • 3. Assay Mixture (20 μL) is dispensed each well of 384 assay plates using a Thermo Multidrop Combi or 16-channel Matrix pipettor. If Manual 12-point 1:3 Dilution Plates are to be tested, Assay Mix is dispensed into empty plates. Discovery Preps 12-point 1:3 Dilution Plates already contain 410 nL compound solution in DMSO. • 4. For Manual 12-point 1:3 Dilution Plates, 0.7 μL is manually transferred using a 16-channel Matrix pipettor to replicate assay plates containing 20 μL Assay Mixture for a final top compound concentration of 338 μM (3.4% DMSO). • 5. For Discovery Preps 12-point 1:3 Dilution Plates, 20 μL Assay Mixture added the 410 nL compound solution already in the plates yields a final top compound concentration of 100 μM (2.0% DMSO). • 6. Background subtraction controls are wells P1-P8 containing only Assay Buffer. The low % inhibition controls are wells P9-P16 containing only Assay Mix. The high % inhibition are wells P17-P24 containing only 1 nM 2′,7′-difluoro-3′,6′-dihydroxy-N-(2-(2-(2-((4-(isoquinolin-8-yl)-3-(4-(isoquinolin-8-yl)phenethoxy)benzyl)oxy)ethoxy)ethoxy)ethyl)-3-oxo-3H-spiro[isobenzofuran-1,9′-xanthene]-5-carboxamide probe in 1× Assay Buffer. • 7. Plates are incubated at […] for 18-24 h in 37° C. incubator (CO2 is off). • 8. Prior to reading the assay, the plates are placed in a dark cabinet to equilibrate at rt for one hour. • 9. Background-subtracted fluorescence polarization (mP) is measured using a PerkinElmer Envision plate reader. • 10. Raw data is entered into Assay Explorer and dose-response curves are generated using a variable slope curve.

Setting [1] is: TNFα FP competitive binding assay, class symbols A/B/C, read-out: TNF IC50.
[2] abbreviates: fluorescence polarization competition, 20 nM TNFα trimer, 1 nM OregonGreen488 probe, read-out: TNF IC50 (TNFα FP binding assay IC50).

Sequence of TNFα trimer (P01375 77-233 limits assumed): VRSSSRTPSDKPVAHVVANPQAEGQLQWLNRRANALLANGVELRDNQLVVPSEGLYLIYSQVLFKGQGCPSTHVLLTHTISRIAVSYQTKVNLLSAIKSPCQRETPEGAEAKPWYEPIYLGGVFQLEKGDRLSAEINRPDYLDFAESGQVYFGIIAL

With `COc1cccc([C@H]2CCc3nc4ccc(-c5cnc(N6CCN(C(C)=O)[C@H](C)C6)nc5)nc4n32)c1` [AM.2, 1-((R)-4-(5-((R)-8-(3-methoxyphenyl)-7,8-dihydro-6H-pyrrolo[2′,1′:2,3]imidazo[4,5-b]pyridin-2-yl)pyrimidin-2-yl)-2-methylpiperazin-1-yl)ethanone], the pIC50 (usually the IC50 on a negative log10 scale, so that one unit is a factor of ten) under setting [1] is > 6.00.

Consider `OC1CCN(c2ncc(-c3ccc4nc5n(c4n3)C(c3ccccc3)CC5)cn2)CC1` (stereo not drawn) [L.3, 1-(5-(8-phenyl-7,8-dihydro-6H-pyrrolo[2′,1′:2,3]imidazo[4,5-b]pyridin-2-yl)pyrimidin-2-yl)piperidin-4-ol], for which, under setting [2], the pIC50 was > 6.00.

Turning to `C[C@H]1CN(C(=O)CO)CCN1c1ncc(-c2ccc3nc4n(c3n2)C2(COC4)COc3ccccc32)cn1` (stereo partly drawn) [BH.1], the pIC50 under setting [1] was > 6.00.

Consider `CCOc1cncc(-c2ccc3nc4n(c3c2)C(c2ccccc2)CC4)c1` (stereo not drawn) [A.15], for which the pIC50 under setting [2] was 5.00 to 6.00.

For the compound `OC1(c2ncc(-c3ccc4nc5n(c4c3)[C@@H](c3ccccc3)CC5)cn2)CCOCC1` [AA.1], under setting [1], the negative logarithm of the IC50 (pIC50) was > 6.00.

For `OC1(c2ccc(Cl)cc2)CCCCc2nc3ccc(-c4cnc(N5CCOCC5)nc4)cn3c21` (stereo not drawn) [J.8], the negative-log IC50 (pIC50) under setting [2] is 5.00 to 6.00.

Regarding `O=C1NCC2CN(c3ncc(-c4ccc5nc6n(c5n4)C(c4ccccc4F)COC6)cn3)CCN12` (stereo not drawn) [AH.7], under setting [1], the negative logarithm of the IC50 (pIC50) was > 6.00.

`OC1(c2cccc(Cl)c2)CCCc2nc3ccc(-c4cnc(N5CCOCC5)nc4)cn3c21` (stereo not drawn) [I.1, 9-(3-Chlorophenyl)-2-(2-morpholinopyrimidin-5-yl)-6,7,8,9-tetrahydrobenzo[4,5]imidazo[1,2-a]pyridin-9-ol]: the pIC50 under setting [2] was 5.00 to 6.00.

Turning to `COc1ccccc1[C@@H]1CCc2nc3ccc(-c4cnc(N5CCN6C(=O)NC[C@@H]6C5)nc4)nc3n21` [AP.1], under setting [1], the negative logarithm of the IC50 (pIC50) was 5.00 to 6.00.

`COc1ccccc1C1CCCc2nc3ccc(-c4cnc(NCC(=O)O)nc4)cn3c21` (stereo not drawn) [Example 8, 2-((5-(9-(2-methoxyphenyl)-6,7,8,9-tetrahydrobenzo[4,5]imidazo[1,2-a]pyridin-2-yl)pyrimidin-2-yl)amino)acetic acid]: the pIC50 under setting [2] was 5.00 to 6.00.

Regarding `COc1ccccc1[C@H]1CCc2nc3ccc(-c4cnc(N5CCC(O)CC5)nc4)nc3n21` [AO.3], the pIC50 under setting [1] is > 6.00.

In the case of `Cc1ccc(-c2ccc3nc4n(c3c2)C(c2ccccc2)COC4)cn1` (stereo not drawn) [T.18], under setting [1], the pIC50 was 5.00 to 6.00.

Take `OC[C@H]1CCCN1c1ncc(-c2ccc3nc4n(c3n2)[C@@H](c2ccccc2)CC4)cn1` [Example 40, ((R)-1-(5-((R)-8-Phenyl-7,8-dihydro-6H-pyrrolo[2′,1′:2,3]imidazo[4,5-b]pyridin-2-yl)pyrimidin-2-yl)pyrrolidin-2-yl)methanol]: the negative-log IC50 (pIC50) under setting [2] was 5.00 to 6.00.

On to `CS(=O)(=O)NCc1ccc(-c2ccc3nc4n(c3c2)C(c2ccccc2)CC4)cc1` (stereo not drawn) [A.4], for which the pIC50 under setting [2] is > 6.00.

Consider `CC(C)(O)c1ncc(-c2ccc3nc4n(c3c2)C(c2c(Cl)cccc2Cl)COC4)cn1` (stereo not drawn) [Z.2], for which, under setting [1], the negative-log IC50 (pIC50) was > 6.00.

Take `CC(C)(O)c1ncc(-c2ccc3nc4n(c3c2)C(c2ccccc2)COC4)cn1` (stereo not drawn) [T.35]: under setting [1], the pIC50 is > 6.00.

As to `CC(C)(O)c1ncc(-c2ccc3nc4n(c3n2)[C@@](C)(c2ccccc2)CC4)cn1` [(R)-2-(5-(8-methyl-8-phenyl-7,8-dihydro-6H-pyrrolo[2′,1′:2,3]imidazo[4,5-b]pyridin-2-yl)pyrimidin-2-yl)propan-2-ol], the pIC50 under setting [2] was > 6.00.

For the compound `C[C@]1(c2ccccc2)CCc2nc3ccc(-c4cnc(N5CCC(O)CC5)nc4)nc3n21` [(R)-1-(5-(8-methyl-8-phenyl-7,8-dihydro-6H-pyrrolo[2′,1′:2,3]imidazo[4,5-b]pyridin-2-yl)pyrimidin-2-yl)piperidin-4-ol], the pIC50 under setting [2] was > 6.00.

Turning to `OC1CCCN(c2ncc(-c3ccc4nc5n(c4c3)[C@@H](c3ccccc3)COC5)cn2)CC1` (stereo partly drawn) [G.11], under setting [2], the pIC50 is > 6.00.

Turning to `OC1(c2cccc(F)c2)CCCc2nc3ccc(-c4cnc(N5CCOCC5)nc4)cn3c21` (stereo not drawn) [I.4], the negative logarithm of the IC50 (pIC50) under setting [2] is 5.00 to 6.00.

For the compound `CC(C)(O)c1ncc(-c2ccc3nc4n(c3n2)[C@](C)(c2ccccc2)CC4)cn1` [(S)-2-(5-(8-methyl-8-phenyl-7,8-dihydro-6H-pyrrolo[2′,1′:2,3]imidazo[4,5-b]pyridin-2-yl)pyrimidin-2-yl)propan-2-ol], under setting [2], the negative logarithm of the IC50 (pIC50) is 4.00 to 5.00.

For the compound `COc1ccccc1C1CCCCc2nc3ccc(-c4cnc(N5CCOCC5)nc4)cn3c21` (stereo not drawn) [S.1], the pIC50 under setting [1] is > 6.00.

As to `OC1(c2ccc(F)cc2)CCCCc2nc3ccc(-c4cnc(N5CCOCC5)nc4)cn3c21` (stereo not drawn) [J.4], the pIC50 under setting [2] was 5.00 to 6.00.

In the case of `CC(O)C1CCN(c2ncc(-c3ccc4nc5n(c4c3)[C@@H](c3ccccc3)COC5)cn2)CC1` (stereo partly drawn) [G.7], the negative-log IC50 (pIC50) under setting [2] is 5.00 to 6.00.

`O=C1NC[C@@H]2CN(c3ncc(-c4ccc5nc6n(c5n4)C4(COCc5ccccc54)COC6)cn3)CCN12` (stereo partly drawn) [BO.2]: the negative-log IC50 (pIC50) (Table BO, read-out: TNF IC50) was > 6.00.

Regarding `OC1CC2(CCN(c3ncc(-c4ccc5nc6n(c5c4)[C@@H](c4ccccc4)COC6)cn3)C2)C1` (stereo partly drawn) [G.34], the pIC50 under setting [2] was > 6.00.

For `Cc1cc(-c2ccc3nc4n(c3c2)C(c2ccccc2)CC4)ccn1` (stereo not drawn) [A.13], the pIC50 under setting [2] is 5.00 to 6.00.

In the case of `OC1CCN(c2ncc(-c3ccc4nc5n(c4n3)[C@@H](c3ccccc3)COC5)cn2)CC1` [AB.4], the pIC50 under setting [1] is > 6.00.

Consider `Cc1ccc(C)c(C2CCc3nc4ccc(-c5cnc(N6CCOCC6)nc5)nc4n32)c1` (stereo not drawn) [N.1], for which the pIC50 under setting [2] is > 6.00.

Take `c1ccc2c(c1)OCCC21COCc2nc3ccc(-c4cnc(N5CCCNCC5)nc4)nc3n21` (stereo not drawn) [BA.4]: the pIC50 under setting [1] is 5.00 to 6.00.

For `OC1(c2ccc(F)cc2)CCCc2nc3ccc(-c4cnc(N5CCOCC5)nc4)cn3c21` (stereo not drawn) [I.6], the negative-log IC50 (pIC50) under setting [2] was 5.00 to 6.00.

Take `CC(O)C(=O)N1CCN(c2ncc(-c3ccc4nc5n(c4n3)C3(CCc4ccccc43)COC5)cn2)CC1` (stereo not drawn) [AV.5]: the pIC50 under setting [1] was > 6.00.

Regarding `COc1cc(OC)cc(C2(O)CCCCc3nc4ccc(-c5cnc(N6CCOCC6)nc5)cn4c32)c1` (stereo not drawn) [J.9], the negative logarithm of the IC50 (pIC50) under setting [2] was 4.00 to 5.00.

For the compound `COc1ccccc1C1CCc2nc3ccc(-c4cnc(N5CCOCC5)nc4)cn3c21` (stereo not drawn) [AG.1], the pIC50 under setting [1] is > 6.00.

As for `Nc1ncc(-c2ccc3nc4n(c3c2)C(c2ccccc2)CC4)cn1` (stereo not drawn) [A.23], the negative-log IC50 (pIC50) under setting [2] is 5.00 to 6.00.

Regarding `OC[C@@H]1CCCN1c1ncc(-c2ccc3nc4n(c3n2)[C@@H](c2ccccc2)CC4)cn1` [AK.1], the negative-log IC50 (pIC50) under setting [1] was 5.00 to 6.00.

As to `CS(=O)(=O)NCc1cccc(-c2ccc3nc4n(c3c2)C(c2ccccc2)CC4)c1` (stereo not drawn) [A.42], under setting [2], the negative-log IC50 (pIC50) is 5.00 to 6.00.

As to `c1ccc2c(c1)COCC21COCc2nc3ccc(-c4cnc(N5CCOCC5)nc4)nc3n21` (stereo not drawn) [BP.1], the negative-log IC50 (pIC50) (Table BP, read-out: TNF IC50) was 5.00 to 6.00.

For the compound `CC(O)c1ncc(-c2ccc3nc4n(c3n2)[C@@H](c2ccccc2)CC4)cn1` (stereo partly drawn) [AL.1], under setting [1], the negative-log IC50 (pIC50) is 5.00 to 6.00.

For `NS(=O)(=O)N1CCN(c2ncc(-c3ccc4nc5n(c4c3)[C@@H](c3ccccc3)COC5)cn2)CC1` [G.12], the negative-log IC50 (pIC50) under setting [2] was > 6.00.

Consider `COc1ccccc1[C@H]1CCc2nc3ccc(-c4cnc(C(C)(C)O)nc4)cn3c21` [Example 12, (R)-2-(5-(1-(2-methoxyphenyl)-2,3-dihydro-1H-cyclopenta[4,5]imidazo[1,2-a]pyridin-7-yl)pyrimidin-2-yl)propan-2-ol], for which the pIC50 under setting [2] was > 6.00.

`COc1ccccc1C1CCCc2nc3ccc(-c4cnc(N5CCC(F)(CO)CC5)nc4)cn3c21` (stereo not drawn) [AJ.3]: under setting [1], the negative-log IC50 (pIC50) is > 6.00.

Consider `O=C1NCC2CN(c3ncc(-c4ccc5nc6n(c5n4)[C@@H](c4ccccc4)CC6)cn3)CCN12` (single isomer, unassigned) [Example 30], for which the negative-log IC50 (pIC50) under setting [2] was > 6.00.

As to `COc1ccc(C2(O)CCCCc3nc4ccc(-c5cnc(N6CCOCC6)nc5)cn4c32)cc1` (stereo not drawn) [J.6], the pIC50 under setting [2] is 5.00 to 6.00.

With `c1ccc([C@@H]2COCc3nc4ccc(-c5cnc(N6CCOCC6)nc5)cc4n32)cc1` [Example 20, (R)-7-(2-Morpholinopyrimidin-5-yl)-4-phenyl-3,4-dihydro-1H-benzo[4,5]imidazo[2,1-c][1,4]oxazine], the pIC50 under setting [2] was 4.00 to 5.00.
